Laboratory results from patent US20250108038A1 (priority 2023, published 2025).

What was measured:
[1] = target: T1, CYP2B6 (Homo sapiens, UniProt P20813); test: in vitro; settings: both, pH 7.4
T1 sequence (P20813 1-491): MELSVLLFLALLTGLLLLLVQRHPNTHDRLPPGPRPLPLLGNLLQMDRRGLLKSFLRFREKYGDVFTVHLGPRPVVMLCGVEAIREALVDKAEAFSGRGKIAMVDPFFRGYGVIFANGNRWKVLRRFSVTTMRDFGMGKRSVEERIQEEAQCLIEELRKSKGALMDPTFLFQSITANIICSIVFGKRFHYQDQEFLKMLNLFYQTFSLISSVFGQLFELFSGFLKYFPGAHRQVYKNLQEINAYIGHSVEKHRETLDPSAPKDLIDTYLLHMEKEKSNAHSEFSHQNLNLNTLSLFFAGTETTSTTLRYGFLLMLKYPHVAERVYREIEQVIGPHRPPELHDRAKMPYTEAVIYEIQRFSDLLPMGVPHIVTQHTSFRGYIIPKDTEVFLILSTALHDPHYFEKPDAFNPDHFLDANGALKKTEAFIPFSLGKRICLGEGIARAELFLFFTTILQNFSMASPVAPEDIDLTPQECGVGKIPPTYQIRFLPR

[2] = target: T2, CYP1A2 (Homo sapiens, UniProt P05177); test: in vitro; settings: both, microsomes, pH 7.4
T2 sequence (P05177 1-516): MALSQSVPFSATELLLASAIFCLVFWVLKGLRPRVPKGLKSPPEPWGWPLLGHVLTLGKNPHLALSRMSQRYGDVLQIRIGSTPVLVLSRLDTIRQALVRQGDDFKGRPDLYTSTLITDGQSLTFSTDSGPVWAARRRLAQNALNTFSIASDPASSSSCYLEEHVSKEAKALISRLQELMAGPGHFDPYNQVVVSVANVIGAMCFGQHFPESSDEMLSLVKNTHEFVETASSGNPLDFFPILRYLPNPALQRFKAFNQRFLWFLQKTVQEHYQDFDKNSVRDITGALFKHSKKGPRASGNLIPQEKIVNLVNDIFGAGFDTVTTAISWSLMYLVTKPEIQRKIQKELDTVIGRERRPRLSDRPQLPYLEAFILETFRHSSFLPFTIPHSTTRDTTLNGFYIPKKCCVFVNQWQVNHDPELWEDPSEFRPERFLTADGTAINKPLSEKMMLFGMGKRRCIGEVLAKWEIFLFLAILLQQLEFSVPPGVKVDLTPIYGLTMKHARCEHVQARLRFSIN

[3] = target: CYP2C19 (Homo sapiens, UniProt P33261); test: in vitro; settings: both, pH 7.4
[4] = target: T3, CYP2C8 (Homo sapiens, UniProt P10632)
T3 sequence (P10632 1-490): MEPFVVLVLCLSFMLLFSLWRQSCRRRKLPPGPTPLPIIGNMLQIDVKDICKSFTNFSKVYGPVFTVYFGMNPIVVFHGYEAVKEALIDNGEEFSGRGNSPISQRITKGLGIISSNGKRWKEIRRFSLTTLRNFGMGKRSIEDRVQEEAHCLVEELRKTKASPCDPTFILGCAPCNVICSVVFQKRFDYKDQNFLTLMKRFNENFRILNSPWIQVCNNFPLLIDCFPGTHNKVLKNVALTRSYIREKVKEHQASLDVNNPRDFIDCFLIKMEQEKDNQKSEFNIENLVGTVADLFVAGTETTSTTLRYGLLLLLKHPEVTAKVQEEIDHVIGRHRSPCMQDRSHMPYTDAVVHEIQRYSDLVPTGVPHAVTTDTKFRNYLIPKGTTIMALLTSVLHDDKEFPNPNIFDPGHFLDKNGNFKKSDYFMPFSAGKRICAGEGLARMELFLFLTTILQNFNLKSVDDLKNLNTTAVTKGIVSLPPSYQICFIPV

[5] = Brain homogenate binding by equilibrium dialysis; type: in vitro ADME, mouse; settings: for % Recovery / % Unbound: mouse brain, 2 μM, 37° C.
Method: Samples of spiked plasma and blank buffer (Dulbecco's phosphate-buffered saline, DPBS) and spiked brain homogenate and blank DPBS added to opposing sides of a dialysis membrane were collected from triplicate equilibrium dialysis chambers prior to (t=0) and following 1, 2, 4 and 6 hours of incubation at 37° C. […] The LC-MS/MS method(s) for analytes (Compound I-19, Compound A and Compound B) was cross-qualified for the analysis of the DPBS samples.
A secondary stock solution of 200 μM (74.2 ug/mL) will be prepared in DMSO. This secondary stock solution will then be diluted 100-fold to 2 μM ([…]) with male CD-1 mouse plasma and brain homogenate (1:2 v/v brain:Dulbecco's phosphate buffered saline, pH 7-7.2) or buffer (DPBS).
To 2.97 mL aliquots of thawed mouse plasma or brain homogenate warmed to 37° C., 30 ul aliquots of the secondary stock solution of the test compound will be added for final concentrations of 2 μM (0.742 ug/mL). An appropriate volume of warmed buffer (DPBS) will also be spiked with the test compound at a concentration of 2 μM ([…]). Triplicate aliquots (50 μL) of each spiked plasma, brain homogenate and buffer solution will be collected prior to dialysis into labeled 1.5 mL polypropylene tubes and then stored at approximately −80° C. until bioanalysis.
Equilibrium dialysis will be performed in a 96-well Teflon dialysis unit (HTDialysis, Gales Ferry, CT). Each well of the unit consists of two chambers separated by a vertically aligned dialysis membrane (regenerated cellulose) with a molecular weight cut-off of 12-14 KDa. The equilibrium dialysis membranes will first be presoaked in deionized water for 30 min, then soaked in 20% ethanol for 20 min, followed by rinsing twice with deionized water.
The equilibrium dialysis apparatus will be assembled according to the manufacturer's directions. One chamber of each well will be immediately filled with 150 μL of blank buffer (to prevent membrane dehydration). Aliquots (150 μL) of spiked plasma, spiked brain homogenate and spiked buffer will then be added to the opposing chamber in each well. Three wells per time point per matrix will be used. The top of the plate will be sealed with an adhesive sealing film to prevent evaporation and maintain constant pH during incubation.
The dialysis apparatus will be incubated at 37° C. in an orbital shaker/incubator (Lab-Line Enviro Shaker) set at 75 rpm.
Following 1, 2, 4 and 6 hours of incubation, samples from each plasma, brain homogenate and buffer compartment will be collected and the sample volume will be documented.

Chain of CYP2C19 (P33261 whole entry): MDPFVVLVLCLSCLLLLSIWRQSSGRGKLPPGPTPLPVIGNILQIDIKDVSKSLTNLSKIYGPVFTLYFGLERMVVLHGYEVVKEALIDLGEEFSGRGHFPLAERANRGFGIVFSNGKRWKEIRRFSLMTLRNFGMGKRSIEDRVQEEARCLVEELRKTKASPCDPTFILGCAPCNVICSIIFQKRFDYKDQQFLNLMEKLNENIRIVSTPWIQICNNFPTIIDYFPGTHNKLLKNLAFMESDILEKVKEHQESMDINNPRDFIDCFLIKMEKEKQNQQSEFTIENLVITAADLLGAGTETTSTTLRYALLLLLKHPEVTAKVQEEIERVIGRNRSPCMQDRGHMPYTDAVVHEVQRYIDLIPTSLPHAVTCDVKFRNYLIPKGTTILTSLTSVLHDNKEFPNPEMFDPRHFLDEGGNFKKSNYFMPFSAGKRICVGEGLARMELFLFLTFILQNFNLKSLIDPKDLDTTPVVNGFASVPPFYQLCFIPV

Row | Compound | inhibition at 10 µM [1] [%] | inhibition at 50 µM [2] [%] | inhibition at 10 µM [3] [%] | Inhibition at Highest Test Article Concentration ([4]; 2C8, Amodiaquine, at 50 μM) [at 50 μM %] | IC50 ([4]; microsomes) [nM] | % recovery, brain homogenate ([5]; 6 hours of dialysis) [%] | % Recovery ([5]; dialysis time 1 h) [%] | % Unbound ([5]; dialysis time 1 h) [%] | % Recovery ([5]; dialysis time 2 h) [%] | % Unbound ([5]; dialysis time 2 h) [%] | % Recovery ([5]; dialysis time 4 h) [%] | % Unbound ([5]; dialysis time 4 h) [%] | % Recovery ([5]; dialysis time 6 h) [%] | % Unbound ([5]; dialysis time 6 h) [%]
1 | OC1(c2ccc(Cl)cc2)c2ccccc2C2=NCCN21 (centres unmarked) [Compound A, 5-(4-chlorophenyl)-2,3-dihydroimidazo[1,2-b]isoindol-5-ol, reference compound] | 62 | 13.7 | 16.5 | – | – | – | – | – | – | – | – | – | – | –
2 | Clc1ccc(C2(OCC3OCCO3)c3ccccc3C3=NCCN32)cc1 (centres unmarked) [Compound I-19] | – | – | – | 73.7 | 2380 | 51.3±2.58 | 87.8 ± 2.40 | 1.33 | 83.1 ± 1.58 | 1.64 ± 0.181 | 65.1 ± 4.05 | 2.46 ± 0.183 | 51.3 ± 2.58 | 3.31 ± 0.385
